The values that follow come from patent US6136781A, “LH-RH receptor antagonists” (Takeda Chemical Industries, Ltd., priority 1995, dated 2000).

Square brackets hold non-standard residues; d marks the D form. Peptide text beside a SMILES is read from it. * marks the point of attachment. Naphthalene1sulfonyl = O=S(=O)(c1cccc2ccccc12)*; Butanoyl(4-Ph) = O=C(CCCc1ccccc1)*; Phg = N[C@H](C(=O)O)c1ccccc1; Tos = Cc1ccc(S(=O)(=O)*)cc1

One series concerns the target T1, Human LH-RH Receptor (Homo sapiens, UniProt P30968).
T1 construct: expressed in transfected cells; host or cells: CHO cells (Chinese hamster ovary), membrane fraction
T1 sequence (P30968 1-328): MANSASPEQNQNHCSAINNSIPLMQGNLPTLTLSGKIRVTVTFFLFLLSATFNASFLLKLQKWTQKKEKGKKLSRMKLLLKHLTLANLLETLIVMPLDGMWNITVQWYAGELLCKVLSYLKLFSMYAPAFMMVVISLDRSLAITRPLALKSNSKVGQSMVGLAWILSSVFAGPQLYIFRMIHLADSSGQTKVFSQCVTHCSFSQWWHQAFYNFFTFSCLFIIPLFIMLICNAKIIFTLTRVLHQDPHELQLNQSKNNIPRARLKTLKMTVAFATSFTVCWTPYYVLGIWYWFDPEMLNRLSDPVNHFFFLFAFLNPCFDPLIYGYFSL
Briefly: Inhibition of bonding of 125I-leuprorelin to human LH-RH receptor (receptor assay). It counts as binding. To be noted: human LH-RH receptor-expressing CHO cell membrane fraction, 25° C. for 60 minutes, Hill plotting. The method, then:
Human LH-RH receptor-expressing CHO cells (10^9 cells) were floated in a phosphate buffer saline containing 5 mM EDTA (PBS-EDTA) and subjected to centrifugation at 100×g for 5 minutes. 10 ml of a cell homogenate buffer (10 mM NaHCO3, 5 mM EDTA, pH 7.5) was added to the resulting cell pellets, and the resulting mixture was then homogenized in a polytron homogenizer. This was thereafter centrifuged at 400×g for 15 minutes, and the resulting supernatant was collected in an ultra-centrifuger and again centrifuged at 100,000×g for 1 hour to obtain a precipitate of the cell membrane fraction. This precipitate was suspended in 2 ml of an assay buffer and centrifuged at 100,000×g for 1 hour. The cell membrane fraction thus collected as a precipitate was again suspended in 20 ml of an assay buffer, put into plural vials and stored at -80° C. These were individually thawed before use.
Determination of Percentage of Inhibition of Bonding of ^125 I-Leuprorelin to Human LH-RH Receptor
The human LH-RH receptor-expressing CHO cell membrane fraction as prepared in Reference Example 2 was diluted with an assay buffer to have a concentration of 200 μg/ml and put into plural tubes at 188 μl/tube. Where the human LH-RH receptor-expressing CHO cell membrane fraction was used, 2 μl of a solution of the test compound (2 mM) as dissolved in 60%-DMSO and 10 μl of ^125 I-leuprorelin (38 nM) were added to the dilution of the fraction. In order to measure the maximum amount of the ^125 I-leuprorelin as bonded to the receptor, a reaction system comprising 2 μl of 60%-DMSO and 10 μl of ^125 -leuprorelin (38 nM) was prepared. In order to measure the amount of ^125 I-leuprorelinas non-specifically bonded to the receptor, a reaction system comprising 2 μl of leuprorelin (100 μM) as dissolved in 60%-DMSO and 10 μl of ^125 I-leuprorelin (38 nM) was prepared.
Each system of the present invention comprising the human LH-RH receptor-expressing CHO cell membrane fraction was reacted at 25° C. for 60 minutes. After the reaction, the reaction mixture was filtered under suction through a polyethyleneimine-treated Wattman glass filter (GF-F). After the filtration, the radioactivity of ^125 I-leuprorelin in the residue remained on the filter paper was measured using a g-counter.
From the data measured, a value of [(TB-SB)/(TB-NSB)]×100 (where SB is the radioactivity of the test system to which the test compound had been added; TB is the radioactivity of the maximum bonding system; and NSB is the radioactivity of the non-specific bonding system) was calculated, which indicates the bonding-inhibition percentage (%) of the compound tested. […] The results obtained are shown in [Table 1].
One may read the IC50 as the concentration that inhibits the measured activity by half. A higher IC50 goes with weaker potency. Consider `CC(C)C[C@@H]1NC(=O)[C@@H](Cc2c[nH]c3ccccc23)NC(=O)[C@H](CCCNC(=N)N)NC(=O)[C@@H](Cc2ccc(O)cc2)NC(=O)[C@@H](CCCCNS(=O)(=O)c2cccc3ccccc23)NC1=O` [Example 23, cyclo(-D-Tyr-Arg-D-Trp-Leu-D-Lys(SO2 Nap(1))-)] (cyclo(L[dK](Naphthalene1sulfonyl)[dY]R[dW])), for which half-maximal inhibition (IC50) was put at 0.9 µM.
Regarding `C[C@H]1NC(=O)[C@H](Cc2ccccc2)NC(=O)[C@@H](CCCNC(=N)N)NC(=O)[C@H](c2ccccc2)NC(=O)[C@H](Cc2c[nH]c3ccccc23)NC1=O` [Example 55, cyclo(-Phg-D-Arg-Phe-D-Ala-Trp-)] (cyclo(F[dA]W[Phg][dR])), half-maximal inhibition (IC50) required 0.2 µM.
On to `Cc1ccc(S(=O)(=O)NC(=N)NCCC[C@H]2NC(=O)[C@H](C)NC(=O)[C@H](Cc3c[nH]c4ccccc34)NC(=O)[C@@H](C)NC(=O)[C@H](Cc3ccccc3)NC2=O)cc1` [Example 51, cyclo(-Ala-D-Arg(Tos)-Phe-D-Ala-Trp-)] (cyclo(A[dR](Tos)F[dA]W)), for which the 50% inhibitory concentration (IC50) came out at 0.2 µM.
`C[C@H]1NC(=O)[C@H](Cc2ccccc2)NC(=O)[C@@H](CCCNC(=N)N)NC(=O)[C@H](Cc2ccccc2)NC(=O)[C@H](Cc2c[nH]c3ccccc23)NC1=O` [Example 36, cyclo(-Phe-D-Arg-Phe-D-Ala-Trp-)] (cyclo(F[dA]WF[dR])): the IC50 came out at 0.9 µM.
In turn, `C[C@H]1NC(=O)[C@H](Cc2ccccc2)NC(=O)[C@H](CCCNC(=N)N)NC(=O)[C@H](Cc2ccccc2)NC(=O)[C@H](Cc2c[nH]c3ccccc23)NC1=O` [Example 43, cyclo(-Phe-Arg-Phe-D-Ala-Trp-)] (cyclo(FRF[dA]W)) registered a concentration for half-maximal inhibition (IC50) of 1 µM.
The same measure, in the same setting: with `CC(C)C[C@@H]1NC(=O)[C@@H](Cc2c[nH]c3ccccc23)NC(=O)[C@H](Cc2ccc(O)cc2)NC(=O)[C@@H]2CCCN2C(=O)[C@H](Cc2c[nH]c3ccccc23)NC(=O)[C@H](CCCNC(=N)N)NC1=O` [Reference Example 1, cyclo(-Tyr-D-Trp-Leu-Arg-Trp-Pro-), reference compound] (cyclo(LRWPY[dW])) the figure was 10 µM; with `CC(C)C[C@@H]1NC(=O)[C@@H](Cc2c[nH]c3ccccc23)NC(=O)[C@H](Cc2ccc(O)cc2)NC(=O)[C@@H](CCCCNC(=O)CCCc2ccccc2)NC(=O)[C@H](CCCNC(=N)N)NC1=O` [Example 19, cyclo(-Arg-D-Lys(COCH2 CH2 CH2 Ph)-Tyr-D-Trp-Leu-)] (cyclo(LR[dK](Butanoyl(4-Ph))Y[dW])), 1 µM.

Test system in the next series: not given
Experiment: not given
To be noted: amide bond; 15-membered ring; DIEA/AcOH; DMF; resin; with chain assembly.
With “cyclo(-pClPhe-D-Arg(Tos)-Nal(2)-D-Ala-Trp-)”, the ring closure, crude yield came to 92.8%.
Molecule “cyclo(-pClPhe-Arg(Tos)-Nal(2)-D-Ala-Trp-)” returned a ring closure, crude yield of 59.1%.

The same series, now with this note: amide bond; 15-membered ring; ONB active ester; 4 steps.
The molecule “Cyclo(-Arg(Tos)-D-Glu(NHCH2 CH2 Ph)-Lys(Cl-Z)-D-Trp-Leu-)” displayed a ring closure, crude yield of 72.3%.

Test system in the next series: not given
Experiment: not given
To be noted: amide bond; 15-membered ring; PyBOP/DIEA; DMF; 25.0 °C; 2 steps.
As for cyclo(-Phe-D-Arg(Tos)-Phe-D-Phe-Trp-), the ring closure, isolated yield amounted to 70.6%.
cyclo(-Phe-D-Arg(Tos)-Phe-D-Trp-Trp-) returned a ring closure, isolated yield of 83%.
